# Patent US12252492B2, “Substituted fused pyrrolo-diazepinones and uses thereof” (Northwestern University, priority 2018, dated 2025)
# What was measured:
# Format in all cases: cell-based, human
# CCRF-CEM = assay: NCI60 one-dose screen, CCRF-CEM; conditions: CCRF-CEM (Leukemia); NCI 60 one-dose, 10^-5 M
# Description: (§1) Anti-cancer activity screening of all compounds was performed by the NCI Developmental Therapeutics Program (DTP) through their NCI60 screening initiative. Assay details can be found at the website dtp.cancer.gov/discovery_development/nci-60/methodology.htm. Information from this website is reproduced here for convenience.
# (§2) As of early 2007 all compounds submitted to the NCI 60 Cell screen are tested initially at a single high dose (10^-5 M) in the full NCI 60 cell panel. Only compounds which satisfy pre-determined threshold inhibition criteria in a minimum number of cell lines will progress to the full 5-dose assay. The threshold inhibition criteria for progression to the 5-dose screen was selected to efficiently capture compounds with anti-proliferative activity based on careful analysis of historical DTP screening data. The threshold criteria may be updated as additional data becomes available.
# (§3) The One-dose data will be reported as a mean graph of the percent growth of treated cells and will be similar in appearance to mean graphs from the 5-dose assay. […]
# (§4) Following drug addition, the plates are incubated for an additional 48 h at 37° C., 5% CO2, 95% air, and 100% relative humidity. […] Bound stain is subsequently solubilized with 10 mM trizma base, and the absorbance is read on an automated plate reader at a wavelength of 515 nm. […]
# HL-60(TB) = assay: NCI60 one-dose screen, HL-60(TB); conditions: HL-60(TB) (Leukemia); NCI 60 one-dose, 10^-5 M
# Description: as §1, §2, §3, §4
# K-562 = assay: NCI60 one-dose screen, K-562; conditions: K-562 (Leukemia); NCI 60 one-dose, 10^-5 M
# Description: as §1, §2, §3, §4
# EKVX = assay: NCI60 one-dose screen, EKVX; conditions: EKVX (Non-Small Cell Lung Cancer); NCI 60 one-dose, 10^-5 M
# Description: as §1, §2, §3, §4
# HOP-62 = assay: NCI60 one-dose screen, HOP-62; conditions: HOP-62 (Non-Small Cell Lung Cancer); NCI 60 one-dose, 10^-5 M
# Description: as §1, §2, §3, §4
# HOP-92 = assay: NCI60 one-dose screen, HOP-92; conditions: HOP-92 (Non-Small Cell Lung Cancer); NCI 60 one-dose, 10^-5 M
# Description: as §1, §2, §3, §4
# HCT-116 = assay: NCI60 one-dose screen, HCT-116; conditions: HCT-116 (Colon Cancer); NCI 60 one-dose, 10^-5 M
# Description: as §1, §2, §3, §4
# KM12 = assay: NCI60 one-dose screen, KM12; conditions: KM12 (Colon Cancer); NCI 60 one-dose, 10^-5 M
# Description: as §1, §2, §3, §4
# SF-268 = assay: NCI60 one-dose screen, SF-268; conditions: SF-268 (CNS Cancer); NCI 60 one-dose, 10^-5 M
# Description: as §1, §2, §3, §4
# UACC-257 = assay: NCI60 one-dose screen, UACC-257; conditions: UACC-257 (Melanoma); NCI 60 one-dose, 10^-5 M
# Description: as §1, §2, §3, §4
# UACC-62 = assay: NCI60 one-dose screen, UACC-62; conditions: UACC-62 (Melanoma); NCI 60 one-dose, 10^-5 M
# Description: as §1, §2, §3, §4
# IGROV1 = assay: NCI60 one-dose screen, IGROV1; conditions: IGROV1 (Ovarian Cancer); NCI 60 one-dose, 10^-5 M
# Description: as §1, §2, §3, §4
# OVCAR-3 = assay: NCI60 one-dose screen, OVCAR-3; conditions: OVCAR-3 (Ovarian Cancer); NCI 60 one-dose, 10^-5 M
# Description: as §1, §2, §3, §4
# OVCAR-5 = assay: NCI60 one-dose screen, OVCAR-5; conditions: OVCAR-5 (Ovarian Cancer); NCI 60 one-dose, 10^-5 M
# Description: as §1, §2, §3, §4
# CAKI-1 = assay: NCI60 one-dose screen, CAKI-1; conditions: CAKI-1 (Renal Cancer); NCI 60 one-dose, 10^-5 M
# Description: as §1, §2, §3, §4
# SN12C = assay: NCI60 one-dose screen, SN12C; conditions: SN12C (Renal Cancer); NCI 60 one-dose, 10^-5 M
# Description: as §1, §2, §3, §4
# BT-549 = assay: NCI60 one-dose screen, BT-549; conditions: BT-549 (Breast Cancer); NCI 60 one-dose, 10^-5 M
# Description: as §1, §2, §3, §4
# NCI60 Cell Line Panel = assay: NCI60 one-dose screen, whole panel statistics; conditions: mean over the NCI60 cell line panel, 10^-5 M
# Description: as §1, §2, §3, §4
SMILES,Growth Percent (CCRF-CEM) [%],Growth Percent (HL-60(TB)) [%],Growth Percent (K-562) [%],Growth Percent (EKVX) [%],Growth Percent (HOP-62) [%],Growth Percent (HOP-92) [%],Growth Percent (HCT-116) [%],Growth Percent (KM12) [%],Growth Percent (SF-268) [%],Growth Percent (UACC-257) [%],Growth Percent (UACC-62) [%],Growth Percent (IGROV1) [%],Growth Percent (OVCAR-3) [%],Growth Percent (OVCAR-5) [%],Growth Percent (CAKI-1) [%],Growth Percent (SN12C) [%],Growth Percent (BT-549) [%],"Growth Percent, Mean (NCI60 Cell Line Panel) [%]"
CC(=O)N1c2ccccc2NC2=C(C(=O)N(C)C2(C)C)C1c1ccccc1 (stereo not drawn) [NUCC-60872],20.66,7.50,16.57,61.53,61.59,37.54,24.91,19.79,42.99,36.37,32.33,39.64,18.09,62.50,71.91,40.74,69.46,41.43
CC(=O)N1c2ccccc2NC2=C(C(=O)N(Cc3ccccc3)C2(C)C)C1c1ccco1 (stereo not drawn) [NUCC-608455],24.15,9.63,12.60,35.37,33.09,21.07,7.52,14.83,42.68,77.61,21.25,26.78,−7.65,25.92,42.97,35.91,47.62,23.48
